In assay [1] the target is T1, human recombinant adrenergic α2B receptor (Homo sapiens, UniProt P18089).
T1 construct: expressed in transfected cells; host or cells: CHO-K1 cells
T1 sequence (P18089 1-450): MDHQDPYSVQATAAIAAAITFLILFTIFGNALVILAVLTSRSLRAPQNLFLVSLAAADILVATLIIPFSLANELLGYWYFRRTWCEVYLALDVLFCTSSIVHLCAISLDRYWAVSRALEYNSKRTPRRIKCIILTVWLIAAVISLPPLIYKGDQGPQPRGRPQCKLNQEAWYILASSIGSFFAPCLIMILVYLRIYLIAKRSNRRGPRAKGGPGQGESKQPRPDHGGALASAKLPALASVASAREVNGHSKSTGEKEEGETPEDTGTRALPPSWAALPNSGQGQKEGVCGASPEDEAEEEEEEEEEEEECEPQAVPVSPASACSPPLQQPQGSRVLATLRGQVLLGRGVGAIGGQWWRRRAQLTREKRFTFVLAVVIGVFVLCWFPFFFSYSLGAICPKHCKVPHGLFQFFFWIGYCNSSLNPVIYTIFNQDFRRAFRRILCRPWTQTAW
The experiment in a line: Adrenergic α2B radioligand binding ([3H]Rauwolscine). Particulars: compound at 1 μM; CHO-K1 cells; read-out: Adrenergic (1 μM) α2B, percent inhibition of specific binding. The method, then:
To evaluate in radioligand binding assays the activity of compounds of the invention, human recombinant adrenergic α2B receptor expressed in Chinese hamster ovary (CHO-K1) cells (Uhlen S et al. Eur. J. Pharmacol. 343(1):93, 1998) in a modified Tris-HCl buffer (50 mM Tris-HCl, pH 7.4, 12.5 mM MgCl2, 1 mM EDTA, 0.2% BSA) was used. Compounds of the invention were incubated with 2.5 nM [3H]Rauwolscine for 60 minutes at 25° C. Non-specific binding was estimated in the presence of 10 μM Prozosin. Receptor proteins were filtered and washed, the filters were then counted to determine [^3H]Rauwolscine specifically bound. Compounds were screened at 1 μM or lower, using 1% DMSO as vehicle. Biochemical assay results are presented as the percent inhibition of specific binding in Table 6.

The target of assay [2] is T2, human recombinant adrenergic α1D receptor (Homo sapiens, UniProt P25100).
T2 construct: expressed in transfected cells; host or cells: HEK-293 cells
T2 sequence (P25100 1-572): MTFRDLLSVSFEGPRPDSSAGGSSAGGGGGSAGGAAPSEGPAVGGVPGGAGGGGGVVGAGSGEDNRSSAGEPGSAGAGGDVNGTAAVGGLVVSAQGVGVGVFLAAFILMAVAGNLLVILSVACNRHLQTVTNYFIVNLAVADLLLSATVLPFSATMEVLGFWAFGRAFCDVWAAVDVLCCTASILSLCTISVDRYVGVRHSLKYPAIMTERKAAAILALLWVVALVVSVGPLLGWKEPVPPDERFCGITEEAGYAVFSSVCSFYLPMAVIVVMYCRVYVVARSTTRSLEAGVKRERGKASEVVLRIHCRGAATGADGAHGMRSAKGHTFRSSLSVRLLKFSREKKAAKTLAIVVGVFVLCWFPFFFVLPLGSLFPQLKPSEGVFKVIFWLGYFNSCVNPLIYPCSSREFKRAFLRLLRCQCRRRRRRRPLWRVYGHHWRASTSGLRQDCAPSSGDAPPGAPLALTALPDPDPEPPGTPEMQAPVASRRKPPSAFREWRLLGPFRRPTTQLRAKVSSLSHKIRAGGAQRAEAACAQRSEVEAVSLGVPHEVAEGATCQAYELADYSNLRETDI
Kind of assay: Adrenergic α1D radioligand binding ([3H]Prozosin). Particulars: compound at 1 μM; HEK-293 cells; read-out: Adrenergic (1 μM) α1D, percent inhibition of specific binding. The procedure: To evaluate in radioligand binding assays the activity of compounds of the invention, human recombinant adrenergic α1D receptor expressed in human embryonic kidney (HEK-293) cells (Kenny, B. A. et al. Br. J. Pharmacol. 115(6):981, 1995) in a 50 mM Tris-HCl buffer, pH 7.4, was used. Compounds of invention were incubated with 0.6 nM [^3H]Prozosin for 60 minutes at 25° C. Non-specific binding was estimated in the presence of 10 μM phentolamine. Receptor proteins were filtered and washed, the filters were then counted to determine [^3H]Prozosin specifically bound. Compounds were screened at 1 μM or lower, using 1% DMSO as vehicle. Biochemical assay results are presented as the percent inhibition of specific binding in Table 6.

For assay [3], the target named is T3, human recombinant histamine H1 receptor (Homo sapiens, UniProt P35367).
T3 construct: expressed in transfected cells; host or cells: CHO cells
T3 sequence (P35367 whole entry): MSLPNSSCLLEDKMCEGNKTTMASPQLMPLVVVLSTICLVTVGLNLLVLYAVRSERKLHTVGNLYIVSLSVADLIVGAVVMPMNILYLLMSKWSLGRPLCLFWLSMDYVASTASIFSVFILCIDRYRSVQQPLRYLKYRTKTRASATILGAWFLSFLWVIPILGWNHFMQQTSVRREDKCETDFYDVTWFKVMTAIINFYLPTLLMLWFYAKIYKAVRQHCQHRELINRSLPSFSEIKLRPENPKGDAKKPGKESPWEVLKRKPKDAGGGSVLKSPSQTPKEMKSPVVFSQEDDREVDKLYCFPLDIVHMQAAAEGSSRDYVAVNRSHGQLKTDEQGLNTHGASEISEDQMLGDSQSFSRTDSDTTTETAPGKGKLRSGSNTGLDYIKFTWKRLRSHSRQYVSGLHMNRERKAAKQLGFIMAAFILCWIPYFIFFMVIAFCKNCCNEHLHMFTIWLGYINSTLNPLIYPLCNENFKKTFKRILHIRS
The experiment in a line: Histamine H1 radioligand binding ([3H]Pyrilamine). Particulars: compound at 1 μM; CHO cells; read-out: Histamine Binding (1 μM) H1, percent inhibition of specific binding. The method, then: To evaluate in radioligand binding assays the activity of compounds of the invention, human recombinant histamine H1 receptor expressed in Chinese hamster ovary (CHO) cells (De Backer, M. D. et al., Biochem. Biophys. Res. Comm. 197(3):1601, 1993) in a modified Tris-HCl buffer (50 mM Tris-HCl, pH 7.4, 2 mM MgCl2, 100 mM NaCl, 250 mM Sucrose) was used. Compounds of the invention were incubated with 1.2 nM [^3H]Pyrilamine for 180 minutes at 25° C. Non-specific binding was estimated in the presence of 1 μM pyrilamine. Receptor proteins were filtered and washed, the filters were then counted to determine [^3H]Pyrilamine specifically bound. Compounds were screened at 1 μM, using 1% DMSO as vehicle. Biochemical assay results are presented as the percent inhibition of specific binding in Table 5.

SMILES strings stand for the structures.

With `CN1CCc2c(c3cc(Cl)ccc3n2CC(=O)NC2CCCCC2)C1` [Compound 60, 2-(8-chloro-1,2,3,4-tetrahydro-2-methylpyrido[4,3-b]indol-5-yl)-N-cyclohexylacetamide], the results for the inhibition at 1 µM in assay [1], in assay [2] and in assay [3] were 52%, 22% and 50%, respectively.

Consider `Cc1ccc2c(c1)c1c(n2CCNC(=O)c2ccc(F)cc2)CCN(C)C1` [Compound 66, 4-fluoro-N-(2-(1,2,3,4-tetrahydro-2,8-dimethylpyrido[4,3-b]indol-5-yl)ethyl)benzamide], for which the inhibition at 1 µM in assay [1] was 107%; in assay [2] it was 76%; in assay [3] it was 66%.

`CN1CCc2c(c3cc(Cl)ccc3n2CCC(=O)OCC2CCCCC2)C1` [Compound 20, cyclohexylmethyl 3-(8-chloro-1,2,3,4-tetrahydro-2-methylpyrido[4,3-b]indol-5-yl)propanoate]: the results for the inhibition at 1 µM in assay [1], in assay [2] and in assay [3] were 103%, 90% and 95%, respectively.

`CN1CCc2c(c3cc(Cl)ccc3n2CCC(=O)O)C1` [CD55, 3-(8-chloro-1,2,3,4-tetrahydro-2-methylpyrido[4,3-b]indol-5-yl)propanoic acid]: the inhibition at 1 µM in assay [1] was found to be 10%; in assay [2], 14%; in assay [3], 22%.

For `Cc1ccc2c(c1)c1c(n2CC(=O)NCC2CCCCC2)CCN(C)C1` [Compound 26, N-(cyclohexylmethyl)-2-(1,2,3,4-tetrahydro-2,8-dimethylpyrido[4,3-b]indol-5-yl)acetamide], the inhibition at 1 µM is 45% in assay [1], 32% in assay [2] and 66% in assay [3].

On to `CC(C)OC(=O)Cn1c2c(c3cc(Cl)ccc31)CN(C)CC2` [Compound 11, isopropyl 2-(8-chloro-1,2,3,4-tetrahydro-2-methylpyrido[4,3-b]indol-5-yl)acetate], for which the inhibition at 1 µM was 69% in assay [1], 38% in assay [2] and 101% in assay [3].

On to `Cc1ccc2c(c1)c1c(n2CCC#N)CCN(C)C1` [CD92, 3-(2,8-dimethyl-3,4-dihydro-1H-pyrido[4,3-b]indol-5(2H)-yl)propanenitrile], for which the inhibition at 1 µM in assay [1] was found to be 94%; in assay [2], 78%; in assay [3], 99%.

Take `Cc1ccc2c(c1)c1c(n2CCNC(=O)C(C)C)CCN(C)C1` [Compound 61, N-(2-(1,2,3,4-tetrahydro-2,8-dimethylpyrido[4,3-b]indol-5-yl)ethyl)isobutyramide]: the inhibition at 1 µM in assay [1] is 70%; in assay [2], 28%; in assay [3] it was 32%.

In the case of `CCOC(=O)CCn1c2c(c3cc(Cl)ccc31)CN(C)CC2` [CD17, ethyl 3-(8-chloro-1,2,3,4-tetrahydro-2-methylpyrido[4,3-b]indol-5-yl)propanoate], the inhibition at 1 µM is 99% in assay [1], 70% in assay [2] and 100% in assay [3].

`Cc1ccc2c(c1)c1c(n2CCNC(=O)C2CCCC2)CCN(C)C1` [Compound 68, N-(2-(1,2,3,4-tetrahydro-2,8-dimethylpyrido[4,3-b]indol-5-yl)ethyl)cyclopentanecarboxamide]: the inhibition at 1 µM in assay [1] stood at 84%; in assay [2], 66%; in assay [3] it was 58%.

Regarding `Cc1ccc2c(c1)c1c(n2CC(=O)O)CCN(C)C1` [CD58, 2-(1,2,3,4-tetrahydro-2,8-dimethylpyrido[4,3-b]indol-5-yl)acetic acid], the inhibition at 1 µM was -6% in assay [1], 0% in assay [2] and 5% in assay [3].

Consider `Cc1ccc2c(c1)c1c(n2CCNC(=O)OCC(Cl)(Cl)Cl)CCN(C)C1` [Compound 8, 2,2,2-trichloroethyl 2-(1,2,3,4-tetrahydro-2,8-dimethylpyrido[4,3-b]indol-5-yl)ethylcarbamate], for which the inhibition at 1 µM in assay [1] came out at 102%; in assay [2], 72%; in assay [3], 101%.

For `CN1CCc2c(c3cc(Cl)ccc3n2CCC(=O)NC2CCCC2)C1` [Compound 31, 3-(8-chloro-1,2,3,4-tetrahydro-2-methylpyrido[4,3-b]indol-5-yl)-N-cyclopentylpropanamide], the results for the inhibition at 1 µM in assay [1], in assay [2] and in assay [3] were 91%, 61% and 45%, respectively.

With `Cc1ccc2c(c1)c1c(n2CCBr)CCN(C)C1` [CD91, 5-(2-bromoethyl)-2,8-dimethyl-2,3,4,5-tetrahydro-1H-pyrido[4,3-b]indole], the inhibition at 1 µM in assay [1] is 102%; in assay [2] it was 88%; in assay [3] it was 98%.

For `CN1CCc2c(c3cc(Cl)ccc3n2CCCO)C1` [CD87, 3-(8-chloro-2-methyl-3,4-dihydro-1H-pyrido[4,3-b]indol-5(2H)-yl)propan-1-ol], the inhibition at 1 µM stood at 103% in assay [1], 75% in assay [2] and 97% in assay [3].

On to `CCNC(=O)CCn1c2c(c3cc(C)ccc31)CN(C)CC2` [Compound 2, N-ethyl-3-(1,2,3,4-tetrahydro-2,8-dimethylpyrido[4,3-b]indol-5-yl)propanamide], for which the inhibition at 1 µM in assay [1] is 55%; in assay [2], 17%; in assay [3], 52%.

Turning to `CN1CCc2c(c3cc(Cl)ccc3n2CC(=O)O)C1` [CD46, 2-(8-chloro-1,2,3,4-tetrahydro-2-methylpyrido[4,3-b]indol-5-yl)acetic acid], the inhibition at 1 µM was 35% in assay [1], 10% in assay [2] and 69% in assay [3].

For the compound `CN1CCc2c(c3cc(Cl)ccc3n2CC(=O)OCC2CCCCC2)C1` [Compound 14, cyclohexylmethyl 2-(8-chloro-1,2,3,4-tetrahydro-2-methylpyrido[4,3-b]indol-5-yl)acetate], the inhibition at 1 µM turned out to be 103% in assay [1], 72% in assay [2] and 98% in assay [3].

Regarding `CCNC(=O)CCCn1c2c(c3cc(C)ccc31)CN(C)CC2` [Compound 6, N-ethyl-4-(1,2,3,4-tetrahydro-2,8-dimethylpyrido[4,3-b]indol-5-yl)butanamide], the inhibition at 1 µM was 36% in assay [1], 0% in assay [2] and 46% in assay [3].

For `Cc1ccc2c(c1)c1c(n2CCN)CCN(C)C1` [CD62, 2-(1,2,3,4-tetrahydro-2,8-dimethylpyrido[4,3-b]indol-5-yl)ethanamine], the inhibition at 1 µM in assay [1] was found to be 32%; in assay [2] it was 34%; in assay [3] it was 44%.

The record behind these values is patent US9115137B2, “2,3,4,5-tetrahydro-1H-pyrido[4,3-B]indole compounds and methods of use thereof” (priority 2008, dated 2015).
